Assay results taken from US20240124409A1, “GUAIANOLIDE SESQUITERPENE LACTONE DERIVATIVES AND PHARMACEUTICAL USE THEREOF” (NANJING UNIVERSITY OF CHINESE MEDICINE, priority 2021, published 2024).

Key:
mouse sepsis model = experiment: Mouse sepsis model (LPS), Q-PCR of inflammatory factors; assay type: in vivo, C57BL/6 mice; design: key: relative mRNA by 2^−ΔΔCt, normalized to Gapdh
Text: The mice were randomly divided into 8 groups, one of which was randomly selected as the normal group, and the other 7 groups were the model group, the parent drug 1 (0.4 and 4 μmol/kg), the hydrochloride 22 (4 μmol/kg), the fumarate 23 (0.4 and 4 μmol/kg) and dexamethasone (Dex, 12 μmol/kg) groups, respectively, with 6 mice in each group. 5 days before model establishment, the parent drug 1 (0.4 and 4 μmol/kg), the hydrochloride 22 (4 μmol/kg), the fumarate 23 (0.4 and 4 μmol/kg) and Dex (12 μmol/kg) were administered intragastrically. The mice in the normal group and model group were administered intragastrically the same volume of the solvent 0.5% CMC-Na. LPS (10 mg/kg) was injected intraperitoneally 1 hour after administration on the last day to establish a mouse sepsis model.
At 6 h after intraperitoneal injection of LPS, the mice were sacrificed by cervical dislocation, and the abdominal cavity was opened. The lungs, livers and kidneys were taken out, and rinsed twice with pre-cooled PBS. The lung tissues, liver left lobe tissues and kidney tissues of the mice were cut, and fixed with 4% paraformaldehyde for 24-48 h. The remaining tissues were frozen at −70° Cfor subsequent use.
20 mg of kidney, lung and liver tissues were accurately weighed, rinsed with pre-cooled PBS solution, cut into small pieces by ophthalmic surgical scissors, and put into a glass homogenizer, into which was added 1 mL Trizol reagent for grinding to prepare tissue homogenate. Subsequently, the homogenate was transferred into a 1.5 mL EP tube without RNase and lysed on ice for 10 min. 200 μL chloroform was added, and the mixture was shaken violently, stood on ice for 3-5 min, and centrifuged at 12000 rpm and 4° C. for 15 min. The supernatant was aspirated carefully into a new 1.5 mL EP tube without RNase, into which was added the same volume of pre-cooled isopropanol, stood on an ice bath for 30 min, centrifuged at 12000 rpm and 4° C. for 10 min, and the supernatant was discarded. 75% ethanol-DEPC solution was added to wash the precipitate, and the total RNA was obtained by inversion and air drying on flat paper. Subsequently, 10 μL of DEPC treated water was added for dissolution. 1 μL of the total RNA solution was taken, and diluted to 100 times, the OD values of which at 260 nm and 280 nm were measured with a full wavelength microplate reader. If the ratio of OD260/OD280 is between 1.8 and 2.0, it is said that the extracted RNA has a high purity, i.e., it can be used in subsequent experiments.
Subsequent experiments were carried out with 20 μL of a reverse transcription reaction system according to the method described in the kit instructions:
Subsequent experiments were carried out with 20 μL of a reaction system according to the method described in the kit instructions:
The above reagents were added into a micro-reaction tube, sealed with a sealing membrane, and placed in a Q-PCR instrument. The parameters were set according to the following reaction conditions to carry out the amplification experiment. The reaction conditions were as follows:
The threshold cycle (Ct) value of each group was recorded. Calculating and analyzing were carried out by the 2^−ΔΔCt method (the expression level of the control gene Gapdh was set to 1 to correct the expression level of the target gene).

H22 cells = experiment: H22 subcutaneous mouse xenograft model, tumor growth; assay type: in vivo, BALB/c mice; conditions: 2 weeks
Method: H22 cells were cultured and amplified in vitro. Appropriate amount of the cells in logarithmic growth phase were resuspended in a suspension of a serum-free RPMI 1640 medium and Matrigel (1:1) to prepare a cell suspension in 3×105/100 μL under sterile conditions. 100 μL of the cell suspension was subcutaneously inoculated into the armpits of the front left limbs of BALB/c mice with a syringe. When the tumor volume grew to 100-200 mm^3, animals with moderate tumor size were randomly divided into groups, with 6 animals in each group. […] The mice were administered intragastrically every day for 2 weeks. During the administration, the weights and tumor diameters of the mice were measured every day. After the experiment, the mice were sacrificed by cervical dislocation, and the tumors were taken and weighed. The formula for calculating a tumor volume (TV) is: TV=½×a×b^2, where a represents the long diameter of a tumor; b represents the short diameter of a tumor.

CT26 cells = experiment: CT26 subcutaneous mouse xenograft model; assay type: in vivo, C57BL/6 mice; conditions: 3 weeks
Method: CT26 cells were cultured and amplified in vitro. Appropriate amount of the cells in logarithmic growth phase were resuspended in a suspension of a serum-free RPMI 1640 medium and Matrigel (1:1) to prepare a cell suspension in 5×10^5/100 μL under sterile conditions. 100 μL of the cell suspension was subcutaneously inoculated into the armpits of the front left limbs of male C57BL/6 mice with a syringe. When the tumor volume grew to 50-70 mm^3, animals with moderate tumor size were randomly divided into groups, with 5 animals in each group. […] The mice were administered intragastrically every day for 3 weeks. During the administration, the weights and tumor diameters of the mice were measured every day. After the experiment, the mice were sacrificed by cervical dislocation, and the tumors were taken and weighed. The formula for calculating a tumor volume (TV) is: TV=½×a×b2, where a represents the long diameter of a tumor; b represents the short diameter of a tumor.

[1] = Stability in artificial gastric juice environment (HPLC); conditions: 37° C.
Method: The samples were dissolved in 500 μL of chromatographic methanol, into which were added 1500 μL of artificial gastric juice, mixed well and then dissolved completely by ultrasound. 50 μL of the above solutions were aspirated precisely, diluted by adding 200 μL of chromatographic methanol, filtered and analyzed by HPLC, wherein the HPLC analysis conditions were mobile phase: 65% methanol -35% water, flow rate: 0.8 mL/min, and column temperature: 25° C., and the initial peak areas were recorded. The above solutions were placed on a constant temperature water bath at 37° C., sampled at 8 h, 16 h and 24 h respectively, and analyzed by HPLC. By calculating the peak areas respectively, the stability data of the corresponding samples in artificial gastric juice environment at 8 h, 16 h and 24 h can be obtained.

[2] = Table 12, title 'in lung' (text b281: liver), 4 μmol/kg i.g.
[3] = Table 12, title 'in lung' (text b281: liver), 0.4 μmol/kg i.g.

SMILES | Il1 mRNA expression (mouse sepsis model; [2]) | Il6 mRNA expression (mouse sepsis model; [2]) | Tnf mRNA expression (mouse sepsis model; [2]) | Il1 mRNA expression (mouse sepsis model; kidney, 4 μmol/kg i.g.) | Il6 mRNA expression (mouse sepsis model; kidney, 4 μmol/kg i.g.) | Tnf mRNA expression (mouse sepsis model; kidney, 4 μmol/kg i.g.) | Il1 mRNA expression (mouse sepsis model; lung, 4 μmol/kg i.g.) | Il6 mRNA expression (mouse sepsis model; lung, 4 μmol/kg i.g.) | Tnf mRNA expression (mouse sepsis model; lung, 4 μmol/kg i.g.) | Non-degradation percentage at 8 h [1] [%] | Non-degradation percentage at 16 h [1] [%] | Non-degradation percentage at 24 h [1] [%] | Il1 mRNA expression (mouse sepsis model; [3]) | Il6 mRNA expression (mouse sepsis model; [3]) | Tnf mRNA expression (mouse sepsis model; [3]) | Il1 mRNA expression (mouse sepsis model; kidney, 0.4 μmol/kg i.g.) | Il6 mRNA expression (mouse sepsis model; kidney, 0.4 μmol/kg i.g.) | Tnf mRNA expression (mouse sepsis model; kidney, 0.4 μmol/kg i.g.) | Il1 mRNA expression (mouse sepsis model; lung, 0.4 μmol/kg i.g.) | Il6 mRNA expression (mouse sepsis model; lung, 0.4 μmol/kg i.g.) | other results
CN(C)C[C@@H]1C(=O)O[C@H]2[C@H]1CC[C@@]1(C)C[C@]13CC[C@@](C)(O)[C@H]23 [Compound 22] | 3.07 ± 0.29 | 3.93 ± 0.90 | 5.71 ± 0.61 | 2.76 ± 0.59 | 2.43 ± 0.64 | 6.20 ± 0.60 | 5.22 ± 0.90 | 7.16 ± 0.71 | 6.52 ± 0.29 |  |  |  |  |  |  |  |  |  |  |  | 
C=C1C(=O)O[C@@H]2[C@H]3C(C)=CC[C@@]34O[C@@]4(C)CC[C@@H]12 [arglabin, reference compound] |  |  |  |  |  |  |  |  |  | 50.14 | 48.70 | 43.40 |  |  |  |  |  |  |  |  | Tumor growth inhibition (H22 cells; 10 mg/kg/d i.g.): 39.43%; Tumor weight (H22 cells; 10 mg/kg/d i.g.): 5.18 g; Tumor growth inhibition (CT26 cells; 20 mg/kg/d i.g.): 34.94%; Tumor weight (CT26 cells; 20 mg/kg/d i.g.): 5.31 g
C=C1C(=O)O[C@@H]2[C@@H]3[C@]4(CC[C@@]3(C)O)C[C@]4(C)CC[C@@H]12 [Compound 1] | 4.82 ± 0.58 | 5.20 ± 0.87 | 7.09 ± 0.99 | 3.05 ± 0.58 | 3.11 ± 0.29 | 6.59 ± 0.18 | 7.89 ± 1.44 | 11.67 ± 1.84 | 7.99 ± 1.36 | 99.08 | 98.76 | 98.16 | 11.24 ± 2.98 | 8.86 ± 3.11 | 8.75 ± 2.25 | 7.01 ± 0.33 | 7.55 ± 2.08 | 7.17 ± 1.22 | 15.29 ± 0.88 | 19.17 ± 0.51 | Tnf mRNA expression (mouse sepsis model; lung, 0.4 μmol/kg i.g.): 8.58 ± 0.85
CN(C)C[C@@H]1C(=O)O[C@H]2[C@H]1CC[C@@]1(C)C[C@]13CC[C@@](C)(O)[C@H]23 [Compound 23] | 4.36 ± 0.94 | 4.97 ± 0.77 | 7.10 ± 1.09 | 2.82 ± 0.33 | 2.70 ± 0.52 | 6.04 ± 1.62 | 6.79 ± 0.72 | 9.10 ± 1.20 | 8.67 ± 1.51 |  |  |  | 10.46 ± 1.55 | 9.13 ± 0.80 | 7.63 ± 1.97 | 6.56 ± 0.88 | 6.05 ± 0.19 | 6.70 ± 0.80 | 13.30 ± 0.88 | 18.40 ± 3.16 | Tnf mRNA expression (mouse sepsis model; lung, 0.4 μmol/kg i.g.): 8.79 ± 1.18; Tumor growth inhibition (H22 cells; 8.43 mg/kg/d i.g.): 42.92%; Tumor weight (H22 cells; 8.43 mg/kg/d i.g.): 4.88 g; Tumor growth inhibition (CT26 cells; 16.86 mg/kg/d i.g.): 43.36%; Tumor weight (CT26 cells; 16.86 mg/kg/d i.g.): 4.62 g
